The text below walks through data of US20220193253A1, “SLOW-RELEASE CYTOKINE CONJUGATES” (ProLynx LLC, priority 2019, published 2022).

Data set [1] concerns Treg cells over Teff and NK cells. The conditions noted are these: cited from earlier work.
Another data set relates to cell proliferation. The conditions noted are these: cited from earlier work.
Data set [2] in a line: Pharmacokinetics of [aminopropyl]-IL-15 released from microsphere-IL-15. Format: in vivo, C57BL/6J mice. How it is done:
The microsphere-IL-15 slurry of Example 10 (275 nmol protein/mL) was diluted in 25 mM Na citrate buffer pH 5.9 containing 500 mM NaCl, 0.05% tween-20 and 1.25% (w/v) hyaluronic acid. For studies that required various doses of microsphere-IL15, serial dilutions were used obtain the desired microsphere-IL-15 concentration. In all cases, aseptic conditions were used to handle and prepare the microsphere conjugate. Syringes with fixed needles (27G) were backfilled with the conjugate (100 μL). The contents of the syringes were administered either s.c. or i.p. to normal, male C57BL/6J mice. Blood samples were drawn at −24, 4, 8, 24, 48, 96, 168 and 240 hours from alternating groups consisting of 3 mice each. HALT protease inhibitor cocktail (ThermoFisher Scientific) was added to all plasma samples prior to being frozen at −80° C. until analysis.
ELISAs for hIL-15 were performed according to the manufacturer's instructions (R&D Systems, hIL-15 Quantikine, Catalog #D1500) to determine the rhIL-15 plasma. Plasma samples were thawed on ice prior to dilution in the standard diluent provided by the manufacturer. The 4, 8, hour samples were diluted 50-fold, the 24 hour samples was diluted twenty-five fold, and the pre-bleed, 48, 96, 168 and 240 hour samples were diluted ten-fold. hIL-15 concentrations were plot as a function of time and fit using GraphPad Prism software.
Pharmacokinetics of [aminopropyl]-IL-15 released from the microsphere conjugate were measured in normal C57BL/6J mice. Mice were dosed with 2.4 nmol conjugated protein (200 μL injection). […] After approximately 120 hours, the observed concentration quickly decreases (FIG. 11). A one phase decay model fit of data through 120 results in a half-life of at least 200 hours. […] A second injection of MS-IL-15 (50 μg) increases the measured plasma IL-15 at 248 h to a similar concentration of the initial dose.

The test system of data set [3] is CD44hiCD8+ T cells and NK cells in PBMCs. Put plainly: Pharmacodynamics of [aminopropyl]-IL-15 released from microsphere-IL-15. The class given is in vivo, C57BL/6J mice. To be noted: for expansion of CD44hiCD8+ T cells / expansion of NK cells: single dose 2.5 μg; for expansion of NK cells in PBMCs: single s.c. injection 12.5, 25 or 50 μg. On the procedure:
For flow cytometry analysis, PMBCs were prepared and surface staining was performed to quantitate NK1.1, CD3, CD8, and CD44 expressing cells. Commercial FITC-, PE- or allophycocyanin-conjugated antibodies were used. Sample data were collected on a FACScan flow cytometer (BD Biosciences) and analyzed using FlowJo cytometry analysis software (TreeStar, Ashland, Oreg.).
Pharmacodynamics of [aminopropyl]-IL-15 released from the microsphere-IL-15 of Example 10 were measured in normal, male C57BL/6J mice (n=3/group) (FIG. 14). Mice were dosed with microsphere-IL-15 (2.5, 12.5, 25 or 50 μg conjugated protein) prepared in Example 10. PMBCs were prepared and surface stained for flow cytometry analysis of NK1.1, CD3, CD8, and CD44 expressing cells. Commercial FITC-, PE- or allophycocyanin-conjugated antibodies were used. Sample data were collected on a FACScan flow cytometer (BD Biosciences) and analyzed using FlowJo cytometry analysis software (TreeStar, Ashland, Oreg.).

Data set [4] relates to T-cells in the spleen and islets. Kind of data set: Pharmacodynamics of IL2 and IL2[N88R,C125S] in NOD mice (flow cytometry of spleen and islets). The class given is in vivo. To be noted: daily injections 25,000 units for five days. On the procedure: Mice were sacrificed 2 hours after the last injection and the spleen and pancreas were harvested for flow cytometry analysis to measure changes in total number of T-cells and their differentiation in the spleen and islets.

Data set [5] relates to Foxp3+CD4+ T-cells and CD8+ T-cells. Kind of data set: Pharmacodynamics of microsphere-IL-2[N88R,C125S] in NOD mice (flow cytometry). The class given is in vivo. How it is done: Three groups of six NOD mice were used to determine the PK/PD of [aminopropyl]-IL-2[N88R,C125S] released from the microsphere-IL-2[N88R,C125S] conjugate. […] The second group was administered a subcutaneous injection of empty microspheres, in which cyclooctynes were capped with N3(CH2CH2O)7H. The third group was administered a single subcutaneous injection of the microsphere-IL-2[N88R,C125S] of Example 4 (0.5, 1, 5, 10 or 19 mg of protein/kg). Plasma, peripheral blood mononuclear cells (PBMCs) and organ tissues were prepared and analyzed according to the description in figure legends. Flow cytometric analysis of lymphocytes was performed to monitor changes in T-cell populations. The spleen and lymph nodes and islets were isolated and single cell suspensions were prepared. Surface-staining was performed following standard cell surface immunofluorescence staining for flow cytometry. Fixation and intracellular staining followed protocols from the eBioscience Foxp3/Transcription Factor Staining Buffer Set (ThermoFisher Scientific). Antibodies used were against CD3, CD4, CD8, CD25, CD44 CD45, and FoxP3; all were from commercial vendors. Stained single cell suspension were analyzed using a LSRII flow cytometer (BD Biosciences).
The percentage CD8+ cells found in the spleen and PBMCs were approximately 11% and 19% respectively. These percentages increased to approximately 25% and 60% respectively, when treated with the microsphere-IL-2[N88R,C125S]. NOD mice were administered IL2-mutein (QDx5, 25,000 units), a single injection of empty microspheres or microsphere-IL-2[N88R,C125S](18 mg/kg). Mice were sacrificed 2 hours after the last dose on day 5.
To determine an effective dose that would expand the Foxp3^+CD4^+Tcells population without the activation of CD8′ cells, a dose titration study of microsphere-IL-2[N88R,C125S] was performed. Four concentrations of the microsphere-IL-2[N88R,C125S](0.5 mg/kg, 1 mg/kg, 5 mg/kg and 10 mg/kg) were tested and the pharmacodynamics were monitored through PBMCs over two weeks. […] Foxp3^+CD4^+T-cell expansion peaked at four days and returned to baseline levels at day 14 for all doses (FIG. 9 A).

A further data set relates to CD8+ effector Tmem cells. To be noted: continuous infusion over 10 days; cited from earlier work.
Setting [6] is: 2.5, 12.5, 25 or 50 μg conjugated protein.
Where [7] appears, read: single sc injection 12.5, 25 or 50 μg.
Where [8] appears, read: single injection 18 mg/kg, day 5.

Entries after “also recorded” stand apart in the source; their conditions may differ.

As for “BAY 50-4798: IL-2 mutein having an arginine replacing asparagine at position 88, SEQ ID No: 2”, in data set [1], the “increase in selectivity for activation of Treg cells over Teff and NK cells” value is listed as 3,000 fold.
In the case of “IL-15[N72D]: IL-15 mutein with enhanced receptor agonism, SEQ ID No: 15”, the “fold increase in biological activity over native IL-15” value in the data set with cell proliferation is listed as 4-5 fold.
Consider “MS-IL-15: BCN-activated PEG hydrogel microspheres loaded with linker-IL-15 (MeSO2 linker, N-terminal reductive alkylation)”, for which, in data set [2] (2.4 nmol conjugated protein), the “change in average mouse body weight” value was “no significant change”. Moreover, the “final average mouse body weight” value in data set [2] (2.4 nmol conjugated protein, initial 25.1±1.3 g) was 25.1 ± 1.4 g. In data set [3] (setting [6]), the “change in average body weight” value is given as “no significant change” and the “clinical observation: injection site reaction” value was “no injection site reaction”. In data set [3] (12.5, 25 or 50 μg), the “fold expansion of NK cells at peak” value was 2-3 fold. In data set [3] (highest dose 50 μg), the “CD44hiCD8+ T cells levels at 28 days” value is given as “two-fold above the control group”. Besides, in data set [3] (initial 25.1±1.3 g), the “final average body weight” value stood at 25.1 ± 1.4 g. In data set [3] (single 50 ug injection), the “duration of expansion of CD44hiCD8+ T cells” value worked out at 28 days. In data set [3], the “expansion of CD44hiCD8+ T cells” value was “no observed expansion”, the “expansion of NK cells” value was “not observed” and the “expansion of NK cells in PBMCs” value is listed as “dose dependent expansion”. The “expansion of NK cells in PBMCs” value in data set [3] (listed as microsphere-IL15) is given as “expands”. In addition, in data set [3] (setting [7]), the “CD44hiCD8+ T cells remained elevated above the control group through” value was 21 days, the “expansion of CD44hiCD8+ T cells in PBMCs” value was “dose dependent expansion”, the “fold expansion of CD44hiCD8+ T cells at peak” value is “two to four fold” and the “time of peak CD44hiCD8+ T cell expansion post treatment” value is 5 days. In addition, in data set [3] (single sc injection 12.5, 25 or 50 μg, listed as microsphere-IL15), the “expansion of CD44hiCD8+ T cells in PBMCs” value is given as “expands”.
With “Proleukin: Aldesleukin (recombinant IL-2), used as native IL-2 comparator in NOD mice [reference compound]”, in data set [4], the “effect on CD4+ and CD8+ effector/memory T-cells in the spleen” value is “increase in both T-cell populations”; the “effect on the T-cells in the islets compared to PBS vehicle” value was “little to no effect”.
Consider “[aminopropyl]-IL-15: IL-15 with N-terminal aminopropyl remnant, released from microsphere-IL-15”, for which the “AUCip compared to AUCsc” value in data set [2] (50 μg) was “nearly two-fold higher”. In data set [2] (released from MS-IL-15 50 μg i.p.), the AUCip is 0.0252 µM·h. Besides, the AUCsc in data set [2] (released from MS-IL-15 50 μg s.c.) amounted to 0.0149 µM·h.
For “microsphere-IL-2[N88R,C125S]: PEG hydrogel microspheres carrying linker-N-terminal aminopropyl-IL-2[N88R,C125S] (MeSO2 linker, reductive alkylation); releases [aminopropyl]-IL-2[N88R,C125S]”, the “percentage / activation of CD8+ cells, dose titration” value in data set [5] (doses 0.5-10 mg/kg, PBMCs) is “did not increase; also recorded: avoids activation”. In data set [5] (setting [8]), the “expansion of Foxp3+CD4+ T-cells in spleen and PBMC” value was “massive expansion”; the “percentage CD8+ cells, PBMCs” value is on record as 60%; the “percentage of T-cells that were Foxp3+CD4+ T-cells, PBMC” value was roughly 55%; the “percentage of T-cells that were Foxp3+CD4+ T-cells, spleen” value was roughly 70%. For the same substance, the “expansion of Foxp3+CD4+ T-cells in PBMCs, dose titration” value in data set [5] (single injection 0.5, 1, 5, 10 mg/kg, two weeks) is recorded as “dose dependent expansion; also recorded: preferentially expands”.
In the case of “rhIL-15: native IL-15, SEQ ID No: 12 [reference compound]”, in the data set with CD8+ effector Tmem cells, the “expansion of CD8+ effector Tmem cells in the peripheral blood” value is listed as 100 x. In addition, in data set [3], the “expansion of CD44hiCD8+ T cells” value is on record as “no observed expansion” and the “expansion of NK cells” value was “not observed”.
